For 1 molecule, IC50 and EC50 results are on record in patent US20260248783A1 (ASCLETIS BIOSCIENCE CO., LTD., priority 2021, published 2026).

The structures appear in SMILES notation. Some results are limits rather than exact numbers.

For one assay, the target named is T1, PD-1/PD-L1 (Homo sapiens, UniProt Q9NZQ7).
T1 construct: Recombinant human PD-L1 protein (19-238) with a Histag at the C-terminus; purchased AcroBiosystems PD1-H5229 (PD-L1); PD1-H5257 (PD-1)
Briefly: PD-1/PD-L1 Homogeneous Time-Resolved Fluorescence (HTRF) Binding Assay. The conditions noted are these: PD-1/PD-L1 HTRF activity; 3 nM PD1, 10 nM PD-L1, 25° C. The procedure, abridged:
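Human PD-L1 (19-238, His-tag) 10 nM and PD-1 (25-167, Fc-tag) 3 nM preincubated 40 min with inhibitor in PBS pH 7.4, 0.05% Tween-20, 0.1% BSA, 1% DMSO, 25 °C. Eu-anti-human IgG (1 nM) and anti-His-APC (20 nM) added, 60 min, 665/620 nm ratio; IC50 from percent control activity versus log concentration.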

Another assay has as its system PDL1. Description: PDL1 Jurkat-NFAT Reporter Assay. It is filed as cell-based. Conditions: Homo sapiens; Hep3B-OS8-hPDL1 with Jurkat-NFAT-PD1 cells, 6 hours, luciferase. As for the experimental part: Example 109. PDL1 Jurkat-NFAT Reporter Assay
Preparation of Hep3B-OS8-hPDL1
1. Hep3B-OS8-hPDL1 cells were cultured in 1640 medium supplemented with 10% fetal bovine serum, 1% penicillin and streptomycin, in which 100 μg/mL G418 and Hygromycin B were also added.
2. Cells were re-suspended with RPMI 1640 medium containing 10% FBS and the cell density was adjusted to 1.25×10^5 cells/mL.
3. Cells were seeded into 96-well flat bottom plate (1.25×10^4 cells/100 μL/well).
b. Compounds solutions preparation
4. Removed the medium from pre-plated Hep3B-OS8-PDL1 cells. Washed once with 200 μL Assay Medium.
5. Prepared the Compounds dilutions in RPMI 1640 medium with 10% FBS according to the Layout.
6. Added compounds into each well in a volume of 50 μL in 9 concentrations ([…])}. Keytruda will be included as positive control at the concentration of 5 μg/mL.
7. Incubated for 20-30 min at 37° C., 5% CO2.
c. Preparation of Jurkat-NFAT-PD1
8. Jurkat-NFAT-PD1 cells were cultured in 1640 medium supplemented with 10% fetal bovine serum, 1% penicillin and streptomycin, in which 1000 μg/mL Hygromycin B and […] puromycin were also added.
9. On the second day of assay, the cells were re-suspended with RPMI 1640 medium containing 10% FBS and the cell density was adjusted to 2.5×10^5 cells/mL.
10. […]
For orientation: Reporter assays use an easily measured gene product as a stand-in for the process of interest.

One may read the IC50 as the midpoint of a concentration-inhibition curve. Low values mean inhibition by little substance, high ones a need for much substance. The EC50 is the concentration needed to bring the measured effect to its halfway point. Low values mean a more potent agent, high ones a less potent agent.

T1 sequence (Q9NZQ7 19-238): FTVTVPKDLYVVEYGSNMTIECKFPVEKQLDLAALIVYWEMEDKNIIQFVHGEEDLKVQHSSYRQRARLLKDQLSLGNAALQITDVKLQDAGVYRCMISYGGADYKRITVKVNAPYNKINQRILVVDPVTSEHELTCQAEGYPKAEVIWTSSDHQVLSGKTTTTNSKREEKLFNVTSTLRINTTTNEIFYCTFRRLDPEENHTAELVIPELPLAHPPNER

Consider `Cn1c(CNC[C@@H]2CCC(=O)N2)cn2cc(-c3cccc(-c4cccc(-c5cc6c(=O)n(C)c(CNC[C@@H]7CCC(=O)N7)cn6c5)c4Cl)c3Cl)cc2c1=O` [Compound 74, 7,7′-(2,2′-dichloro-[1,1′-biphenyl]-3,3′-diyl)bis(2-methyl-3-(((((S)-5-oxopyrrolidin-2-yl)methyl)amino)methyl)pyrrolo[1,2-a]pyrazin-1(2H)-one)], for which the half-inhibitory concentration (IC50) at PD-1/PD-L1 was 10 to 100 nM. Besides, the EC50 in the assay with PDL1 is ≥ 500 nM.
